Source: ChEMBL document CHEMBL1201862, “PubChem BioAssay data set” (2004)
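Five compound concentrations were applied to cells in 96-well plates for 48 hours; endpoints were derived by simple linear interpolation of the resulting dose-response curve. Abbreviation: GI50, concentration required for 50% inhibition of growth.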 Active and inactive are the calls of the source. Rule as the data show it: active = GI50 up to about 1.1 µM and inactive = higher.

Experiments:
Assay in all cases: NCI-60 cell line screen, 48 h
[1] = system: Malme-3M
[2] = system: DU-145
[3] = system: SK-OV-3
[4] = system: SN12C
[5] = system: SNB-19
[6] = system: M14
[7] = system: BT-549
[8] = system: CAKI-1
[9] = system: UO-31
[10] = system: SF-295
[11] = system: SF-268
[12] = system: UACC-257
[13] = system: MDA-N
[14] = system: SNB-75
[15] = system: MDA-MB-231
[16] = system: SK-MEL-5
[17] = system: OVCAR-4
[18] = system: MOLT-4

Measured: GI50

N#Cc1c(NC(=O)CCC(=O)O)ccc2ccccc12
inactive: [1] > 100 µM | [2] > 100 µM | [3] > 100 µM | [4] > 100 µM | [5] > 100 µM | [6] > 100 µM | [7] > 100 µM | [8] > 100 µM | [9] > 100 µM | [10] > 100 µM | [11] > 100 µM | [12] > 100 µM | [13] > 100 µM | [14] 64.1 µM | [15] > 100 µM | [16] > 100 µM | [17] > 100 µM

CC(=O)OCc1cc(=O)n2c([nH]c3ccccc32)c1C#N
inactive: [1] 89.1 µM | [2] 68.7 µM | [3] 80.7 µM | [4] 67 µM | [5] 80.2 µM | [6] 61.8 µM | [7] > 100 µM | [18] 47.1 µM | [8] 28.2 µM | [9] 78.3 µM | [10] 58.3 µM | [12] > 100 µM | [13] > 100 µM | [15] 48.4 µM | [16] 49.9 µM | [17] 1.63 µM

Cc1n[nH]c(=O)n1/N=C/c1cccs1
inactive: [1] > 100 µM | [2] > 100 µM | [3] > 100 µM | [4] > 100 µM | [5] > 100 µM | [6] > 100 µM | [7] > 100 µM | [8] > 100 µM | [9] > 100 µM | [10] > 100 µM | [11] > 100 µM | [12] > 100 µM | [13] > 100 µM | [14] > 100 µM | [15] > 100 µM | [17] > 100 µM

O=C(C=P(c1ccccc1)(c1ccccc1)c1ccccc1)c1ccc(-c2cccs2)cc1
inactive: [1] 4.46 µM | [2] 8.73 µM | [3] 5.66 µM | [4] 4.98 µM | [5] 2.96 µM | [6] 2.57 µM | [7] 20.5 µM | [18] 2.15 µM | [8] 4.91 µM | [9] 3.48 µM | [10] 4.17 µM | [11] 12.9 µM | [12] 1.8 µM | [13] 3.22 µM | [14] 3.56 µM | [15] 9.79 µM | [16] 2.17 µM | [17] 2.36 µM

Cn1c(COC(=O)NC2CCCCC2)c(COC(=O)NC2CCCCC2)c2ccc3cc(Cl)c(Cl)cc3c21
inactive: [1] 6.43 µM | [2] 28.6 µM | [3] 22 µM | [4] 11.7 µM | [5] 11.1 µM | [6] 16.5 µM | [7] 16.4 µM | [18] 14.8 µM | [8] 2.62 µM | [9] 28.4 µM | [10] 22.8 µM | [11] 6.4 µM | [12] 14.5 µM | [13] 12.6 µM | [14] 8.39 µM | [15] 10.2 µM | [16] 11.7 µM
